What was measured:
Format in all cases: in vivo, human
[1] = system: subjects with compensated cirrhosis due to NASH; test: Proof-of-concept study of Compound 1 in compensated cirrhosis due to NASH
Method: Methods: In a proof-of-concept study, 10 subjects with suspected compensated cirrhosis (Child-Turcotte-Pugh [CTP]-A) due to NASH (defined by any one of biopsy, liver stiffness by magnetic resonance elastography [MRE]≥4.67 kPa or transient elastography ≥14.0 kPa, or Fibrotest ≥0.75) received Compound 1 20 mg orally once daily for 12 weeks. Centrally-read magnetic resonance imaging-proton density fat fraction (MRI-PDFF) and MRE, and serum markers of fibrosis were measured at baseline (BL), Week 4 (W4), and Week 12 ([…]). For DNL determination, heavy water (^2H2O, 35 mL) was administered three times daily for one-week cycles prior to baseline, W4, and […]. Deuterium incorporation into palmitate was measured in fasting plasma samples by GC/MS, and mass isotopomer distribution analysis was used to calculate hepatic DNL and its inhibition by Compound 1.

[2] = system: non-cirrhotic subjects with NASH; test: Phase 2 randomized placebo-controlled trial of Compound 1 in NASH: imaging, liver biochemistry, serum fibrosis markers, tolerability; details: for Liver stiffness by FibroScan, median relative change from baseline: W12, n = 40; for Hyaluronic acid, median relative change from baseline / PIII-NP, median relative change from baseline / TIMP-1, median relative change from baseline: W12, serum
Method: (§1) Methods: In this double-blind, placebo-controlled trial, 126 non-cirrhotic subjects with NASH diagnosed noninvasively by MRI proton density fat fraction (PDFF) ≥8% and liver stiffness ≥2.5 kPa by MR elastography (MRE), or historical liver biopsy consistent with NASH and stage 1 to 3 fibrosis, were randomized 2:2:1 to receive Compound 1 20 mg, Compound 1 5 mg, or placebo orally QD for 12 weeks ([…]). Centrally-read MRI-PDFF and MRE, and FibroScan and serum markers of fibrosis were measured at baseline and […]. In some subjects, liver stiffness and hepatic fat content by Controlled Attenuation Parameter (CAP) were assessed using transient elastography (FibroScan®; Echosens, Paris, France) at baseline (i.e. week 0) and week 12.

[3] = system: non-cirrhotic subjects with NASH; test: Phase 2 trial of Compound 1 in NASH: acylcarnitine species by UHPLC-MS
Method: as §1, with “12. Acylcarnitine species measurements were performed with Ultrahigh Performance Liquid Chromatography-Tandem Mass Spectroscopy (UHPLC-MS; Waters Acquity UHPLC, Waters Corporation, Milford, MA USA) and Hybrid Quadrupole-Orbitrap mass spectometer (Q-Exactive Thermo Fischer Scientific, Waltham, MA, USA) platforms in electrospray ionisation-positive and -negative modes as known.” for “12.”

[4] = Compound 1 5 mg orally QD, W12, n = 47
[5] = Compound 1 20 mg orally QD, W12, n = 46
[6] = Compound 1 20 mg, 5 mg, placebo, W12
[7] = Compound 1 5 mg, PDFF Nonresponders
[8] = Compound 1 5 mg, PDFF Responders
[9] = Compound 1 20 mg, PDFF Nonresponders
[10] = Compound 1 20 mg, PDFF Responders

Structure (SMILES): COc1ccccc1[C@H](Cn1c(=O)n(C(C)(C)C(=O)O)c(=O)c2c(C)c(-c3ncco3)sc21)OC1CCOCC1 [Compound 1, (R)-2-(1-(2-(2-methoxyphenyl)-2-((tetrahydro-2H-pyran-4-yl)oxy)ethyl)-5-methyl-6-(oxazol-2-yl)-2,4-dioxo-1,2-dihydrothieno[2,3-d]pyrimidin-3(4H)-yl)-2-methylpropanoic acid]
- Asymptomatic Grade 3 hypertriglyceridemia ([1]; Compound 1 20 mg once daily, 10 subjects, responded to fibrate therapy): One subject
- Changes in MRE-stiffness or serum fibrosis markers ([1]; Compound 1 20 mg once daily, 12 weeks): No significant changes
- Tolerability ([1]; Compound 1 20 mg once daily, 12 weeks, no premature discontinuation): well-tolerated
- Other lipid parameters ([1]; Compound 1 20 mg once daily, BL to W12): unchanged
- ≥30% relative decline in PDFF, % of subjects ([1]; Compound 1 20 mg once daily, W4, 5 of 10 subjects): 50%
- ≥30% relative decline in PDFF, % of subjects ([1]; Compound 1 20 mg once daily, W12, 7 of 10 subjects): 70%
- Fasting triglycerides, median ([1]; Compound 1 20 mg once daily, W12, IQR (142, 248), BL 147 (105, 231), P=0.008): 159 mg/dL
- Hepatic PDFF (MRI-PDFF), median ([1]; Compound 1 20 mg orally once daily, W12, BL 9.2, P=0.004): 4.6%
- Serum ALT, median ([1]; Compound 1 20 mg orally once daily, W12, BL 46, P=0.008): 32 U/L
- ALT, median relative change from baseline ([2]; Compound 1 5 mg orally QD, W12): −9.8%
- ≥30% reduction in MRI-PDFF, % of subjects ([2]; Compound 1 5 mg orally QD, W12 (11/47)): 23%
- ≥15% reduction in MRE-stiffness, % of subjects ([2]; Compound 1 5 mg orally QD, W12 (19/47)): 40%
- Liver stiffness by FibroScan, median relative change from baseline ([2]; Compound 1 5 mg orally QD): −8.4%
- MRE-stiffness, median relative change from baseline [2, 4]: −9.6%
- MRI-PDFF, median relative change from baseline [2, 4]: −13.0%
- Hyaluronic acid, median relative change from baseline ([2]; Compound 1 5 mg orally QD): −0.7%
- PIII-NP, median relative change from baseline ([2]; Compound 1 5 mg orally QD): −7.0%
- TIMP-1, median relative change from baseline ([2]; Compound 1 5 mg orally QD): −2.9%
- MRI-PDFF, differences from placebo ([2]; Compound 1 5 mg, W12): not statistically significant
- Median alkaline phosphatase, change ([2]; Compound 1 5 mg, W12): unchanged
- Hepatic steatosis by CAP (Controlled Attenuation Parameter) ([2]; Compound 1 20 mg and 5 mg, week 12, differences not statistically significant): Dose-dependent reductions
- Tolerability ([2]; Compound 1 20 mg or 5 mg QD, 12 weeks): generally well-tolerated
- ALT, median relative change from baseline ([2]; Compound 1 20 mg orally QD, W12): −20.5%
- ≥15% reduction in MRE-stiffness, % of subjects ([2]; Compound 1 20 mg orally QD, W12 (15/46)): 33%
- ≥30% reduction in MRI-PDFF, % of subjects ([2]; Compound 1 20 mg orally QD, W12 (22/46)): 48%
- Liver stiffness by FibroScan, median relative change from baseline ([2]; Compound 1 20 mg orally QD): −11.1%
- MRE-stiffness, median relative change from baseline [2, 5]: −5.5%
- MRI-PDFF, median relative change from baseline [2, 5]: −28.9%
- Hyaluronic acid, median relative change from baseline ([2]; Compound 1 20 mg orally QD): −6.9%
- PIII-NP, median relative change from baseline ([2]; Compound 1 20 mg orally QD): −13.9%
- TIMP-1, median relative change from baseline ([2]; Compound 1 20 mg orally QD): −7.9%
- Liver stiffness by FibroScan, M probe, change from baseline to week 12 between treatment groups ([2]; Compound 1 20 mg, 5 mg, placebo): no differences
- Changes in liver stiffness by MRE [2, 6]: did not differ between groups
- Changes in other liver biochemistry tests and the composite ELF score among the treatment groups [2, 6]: not significantly different
- MRI-PDFF compared with placebo ([2]; Compound 1 20 mg, W12): statistically and clinically significant decrease
- Serum levels of TIMP-1 ([2]; Compound 1 20 mg, W12, p=0.022 vs placebo): significant reductions
- Median alkaline phosphatase, increase ([2]; Compound 1 20 mg, W12, p≤0.001 vs placebo): 9%
- Acylcarnitine species compared according to PDFF response ([3]; Compound 1 5 mg): minimal changes
- 3-hydroxybutyrylcarnitine (1), median % change from baseline [3, 7]: −4.08%
- 5-dodecenoylcarnitine (C12:1), median % change from baseline [3, 7]: 15.43%
- laurylcarnitine (C12), median % change from baseline [3, 7]: 15.23%
- linolenoylcarnitine (C18:3), median % change from baseline [3, 7]: −23.55%
- myristoleoylcarnitine (C14:1), median % change from baseline [3, 7]: 25.74%
- myristoylcarnitine (C14), median % change from baseline [3, 7]: 12.05%
- octadecenedioylcarnitine (C18:1-DC), median % change from baseline [3, 7]: 0%
- palmitoleoylcarnitine (C16:1), median % change from baseline [3, 7]: 18.13%
- 3-hydroxybutyrylcarnitine (1), median % change from baseline [3, 8]: −18.06%
- 5-dodecenoylcarnitine (C12:1), median % change from baseline [3, 8]: 2.08%
- laurylcarnitine (C12), median % change from baseline [3, 8]: 1.99%
- linolenoylcarnitine (C18:3), median % change from baseline [3, 8]: 6.49%
- myristoleoylcarnitine (C14:1), median % change from baseline [3, 8]: −4.71%
- myristoylcarnitine (C14), median % change from baseline [3, 8]: −7.50%
- octadecenedioylcarnitine (C18:1-DC), median % change from baseline [3, 8]: 33.24%
- palmitoleoylcarnitine (C16:1), median % change from baseline [3, 8]: −0.06%
- 3-hydroxybutyrylcarnitine (1), median % change from baseline [3, 9]: 34.27%
- 5-dodecenoylcarnitine (C12:1), median % change from baseline [3, 9]: 58.85%
- laurylcarnitine (C12), median % change from baseline [3, 9]: 36.72%
- linolenoylcarnitine (C18:3), median % change from baseline [3, 9]: 20.43%
- myristoleoylcarnitine (C14:1), median % change from baseline [3, 9]: 22.42%
- myristoylcarnitine (C14), median % change from baseline [3, 9]: 23.92%
- octadecenedioylcarnitine (C18:1-DC), median % change from baseline [3, 9]: 36.38%
- palmitoleoylcarnitine (C16:1), median % change from baseline [3, 9]: 31.63%
- 3-hydroxybutyrylcarnitine (1), median % change from baseline [3, 10]: −13.99%
- 5-dodecenoylcarnitine (C12:1), median % change from baseline [3, 10]: −12.39%
- laurylcarnitine (C12), median % change from baseline [3, 10]: −3.23%
- linolenoylcarnitine (C18:3), median % change from baseline [3, 10]: −17.84%
- myristoleoylcarnitine (C14:1), median % change from baseline [3, 10]: −7.22%
- myristoylcarnitine (C14), median % change from baseline [3, 10]: −19.99%
- octadecenedioylcarnitine (C18:1-DC), median % change from baseline [3, 10]: −11.01%
- palmitoleoylcarnitine (C16:1), median % change from baseline [3, 10]: −9.82%
- Multiple long and medium-chain acylcarnitine species, PDFF response versus no PDFF response ([3]; Compound 1 20 mg, before administration of the next daily dose): significantly reduced

From patent US11963961B2, “Combination therapy comprising an ACC inhibitor” (Gilead Sciences, Inc., priority 2017, dated 2024)
